Assay results taken from ChEMBL document CHEMBL1201862, “PubChem BioAssay data set” (2004).
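Five concentrations, 48 hours, 96-well plates. The concentration for 50% growth inhibition is given as GI50.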 Calls of active or inactive are those of the source. Cut-off read from the data, not from the text of the source: active = GI50 up to about 1.1 µM and inactive = higher. Starred links: 1 amine or outer side, 2 acyl side, 3 side chain; linkers in the order of their positions; H or OH if unused. Positions of bridges follow the written chain, without caps; N, C: chain ends. Non-standard residues stand in square brackets, D forms with d. Residues, ends and D or L forms follow the SMILES beside them. Chains are numbered I, II in the order given. Actinocin(1to9) = Cc1c2oc3c(C)ccc(C(=O)[*:2])c3nc-2c(C(=O)[*:1])c(N)c1=O; NMeV = CN[CH](C(=O)O)C(C)C; Sar = CNCC(=O)O

How the values were obtained:
Test in all cases: NCI-60 cell line screen, 48 h
A498 = system: A498
A549 = system: A549
CCRF-CEM = system: CCRF-CEM
COLO 205 = system: COLO 205
EKVX = system: EKVX
HT-29 = system: HT-29
IGROV-1 = system: IGROV-1
KM12 = system: KM12
LOX IMVI = system: LOX IMVI
MDA-N = system: MDA-N
NCI/ADR-RES = system: NCI/ADR-RES
OVCAR-3 = system: OVCAR-3
PC-3 = system: PC-3
RXF 393 = system: RXF 393
SK-MEL-5 = system: SK-MEL-5
SN12C = system: SN12C
SNB-75 = system: SNB-75
TK-10 = system: TK-10
U-251 = system: U-251
UACC-62 = system: UACC-62

Compound | GI50 (A498) | GI50 (A549) | GI50 (CCRF-CEM) | GI50 (COLO 205) | GI50 (EKVX) | GI50 (HT-29) | GI50 (IGROV-1) | GI50 (KM12) | GI50 (LOX IMVI) | GI50 (MDA-N) | GI50 (NCI/ADR-RES) | GI50 (OVCAR-3) | GI50 (PC-3) | GI50 (RXF 393) | GI50 (SK-MEL-5) | GI50 (SN12C) | GI50 (SNB-75) | GI50 (TK-10) | GI50 (U-251) | GI50 (UACC-62)
CCOC(=O)NNC1(SC)NC(=O)c2c(cc(Cl)oc2=O)O1 (stereo not given) | 14.2 µM (inactive) | 8.11 µM (inactive) | 2.34 µM (inactive) | 6.93 µM (inactive) | 6.85 µM (inactive) | 2.19 µM (inactive) | 3.87 µM (inactive) | 10.4 µM (inactive) | 2.06 µM (inactive) | 2.58 µM (inactive) | 6.84 µM (inactive) | 2.84 µM (inactive) | 3.4 µM (inactive) | 3.14 µM (inactive) | 5.16 µM (inactive) | 3.21 µM (inactive) | 9.84 µM (inactive) | 3.55 µM (inactive) | 10.8 µM (inactive) | 5.97 µM (inactive)
CCC(C)C1NC(=O)C(NC(=O)c2c3nc4c(C(=O)NC5C(=O)NC(C(C)CC)C(=O)N6CCCC6C(=O)N(C)CC(=O)N(C)C(C(C)C)C(=O)OC5C)ccc(C)c4oc-3c(C)c(=O)c2N)C(C)OC(=O)C(C(C)C)N(C)C(=O)CN(C)C(=O)C2CCCN2C1=O (stereo not given) (I: TIP[Sar][NMeV] / II: TIP[Sar][NMeV]; ester I:1-I:C, II:1-II:C; linker I:N-II:N via Actinocin(1to9); configuration not given here) | 0.0102 µM (active) | 0.000753 µM (active) | < 0.0001 µM (active) | < 0.0001 µM (active) | 0.0145 µM (active) | < 0.0001 µM (active) | < 0.0001 µM (active) | 0.00107 µM (active) | < 0.0001 µM (active) | < 0.01 µM (active) | 0.296 µM (active) | 0.00184 µM (active) | 0.000895 µM (active) | 0.00394 µM (active) | 0.000198 µM (active) | 0.000282 µM (active) | 0.00319 µM (active) | 0.0147 µM (active) | < 0.0001 µM (active) | 0.000169 µM (active)
O=C(NCc1ccccc1)c1cc2ccccc2o/c1=N\c1cccc(C(F)(F)F)c1 | 85.1 µM (inactive) | 47.1 µM (inactive) | 45.1 µM (inactive) | 29.3 µM (inactive) | > 100 µM (inactive) | 35.9 µM (inactive) | 81.3 µM (inactive) | 48.6 µM (inactive) | 35.6 µM (inactive) | 54.8 µM (inactive) | 47.1 µM (inactive) | 67.3 µM (inactive) | 44.3 µM (inactive) | 78 µM (inactive) | 26.4 µM (inactive) | 29.3 µM (inactive) | 74.8 µM (inactive) | 50.4 µM (inactive) | 71 µM (inactive) | 52.2 µM (inactive)
O=C(OCc1ccccc1)N1c2cc([N+](=O)[O-])ccc2C(=O)N2CCC[C@H]2C1O (stereo not given in full) | > 100 µM (inactive) | > 100 µM (inactive) | > 100 µM (inactive) | > 100 µM (inactive) | > 100 µM (inactive) | > 100 µM (inactive) | > 100 µM (inactive) | > 100 µM (inactive) | > 100 µM (inactive) | > 100 µM (inactive) | > 100 µM (inactive) | > 100 µM (inactive) | > 100 µM (inactive) | > 100 µM (inactive) | > 100 µM (inactive) | > 100 µM (inactive) | > 100 µM (inactive) | > 100 µM (inactive) | > 100 µM (inactive) | > 100 µM (inactive)
NC1c2c(Cl)sc(Cl)c2C(=O)C1O (stereo not given) | > 100 µM (inactive) | > 100 µM (inactive) | 19 µM (inactive) | 18.2 µM (inactive) | 21.6 µM (inactive) | 19.7 µM (inactive) | 57.9 µM (inactive) | > 100 µM (inactive) | 23.4 µM (inactive) | 44.4 µM (inactive) | 36.9 µM (inactive) | 30.8 µM (inactive) | > 100 µM (inactive) | 12.8 µM (inactive) | 26.9 µM (inactive) | 15.8 µM (inactive) | 33.6 µM (inactive) | > 100 µM (inactive) | 21.2 µM (inactive) | 17.7 µM (inactive)
CCCCCCCCCC1CC(=O)NCC(=O)NC(C(C)C)C(=O)NC(CC(C)C)C(=O)NC(C)C(=O)NC(C(C)C)C(=O)O1 (stereo not given) | 1.36 µM (inactive) | 17.2 µM (inactive) | 15.7 µM (inactive) | 50.4 µM (inactive) | 21.5 µM (inactive) | 5.9 µM (inactive) | 31.9 µM (inactive) | 6.79 µM (inactive) | 7.96 µM (inactive) | 17.1 µM (inactive) | > 100 µM (inactive) | 9.59 µM (inactive) | 6.9 µM (inactive) | 35.3 µM (inactive) | 17.3 µM (inactive) | 19.1 µM (inactive) | 12.3 µM (inactive) | 24.3 µM (inactive) | 12.8 µM (inactive) | 25.1 µM (inactive)
O=C1CC(n2cccc2)c2c(Br)sc(Br)c21 (stereo not given) | 24.9 µM (inactive) | 21 µM (inactive) | 6.35 µM (inactive) | 16.9 µM (inactive) | 16 µM (inactive) | 16.6 µM (inactive) | 16.2 µM (inactive) | 7.23 µM (inactive) | 6.73 µM (inactive) | 16.3 µM (inactive) | 26.1 µM (inactive) | 15.8 µM (inactive) | 16.4 µM (inactive) | 20.6 µM (inactive) | 16 µM (inactive) | 17.3 µM (inactive) | 18.7 µM (inactive) | 19.2 µM (inactive) | 15.2 µM (inactive) | 15.9 µM (inactive)
